The values that follow are results of earlier work, collected in patent US20220370316A1, “BIOCIDE PRODUCT OF BROAD, CONTINUOUS AND PROLONGUED EFFECT BASED ON ETHANOL, BENZALKONIUM CHLORIDE AND COPPER NANOPARTICLES” (priority 2021, published 2022).

The conditions of series [1]: after topical application.
The test system of series [2] is cutaneous bacteria. Particulars: ethanol at 70% concentration, two minutes, skin kept in contact with the alcohol without drying.

For “Alkyl-benzyl-dimethyl ammonium chloride [Benzalkonium chloride]”, the “time range of effectivity” value in series [1] was no more than 12 h.

In the case of `CCO` [Ethanol, ethanol], the cutaneous bacteria destroyed entry in series [2] is listed as “approximately 90%”.
